Data on one compound can be found in article PMC9785397, “Exploiting Conserved Quorum Sensing Signals in Streptococcus mutans and Streptococcus pneumoniae” (Microorganisms, 2022).

Converted amounts (≈) assume the structure as drawn. Bounds are passed on as bounds.

For one assay, the system named is S. oralis. Description: microbe, parasite or virus in culture. It counts as cell-based, Streptococcus oralis. Particulars: peptides 0–50 μM, 16 h, 37 °C, microaerophilic, A620 nm, three separate experiments. The source says: (§1) Streptococcus mutans Clarke (strain designation NCTC 10449), Pseudomonas aeruginosa (Schroeter) Migula (strain designation PAO1), Fusobacterium nucleatum, subspecies nucleatum (strain VPI 4355), and Porphyromonas gingivalis (strain 2561) were purchased from ATCC (LGC Standards Srl, Milan, Italy). Streptococcus mitis, Streptococcus oralis, and Streptococcus sanguinis were obtained from clinical isolates and characterized by morphological, biochemical, and molecular typing. S. mutans, S. mitis, S. oralis, and S. sanguinis were maintained in Brain Heart Infusion (BHI) broth or agar under microaerophilic conditions. P. aeruginosa was maintained in trypticase soy (TS) agar or broth. F. nucleatum was maintained in TS agar or broth with defibrinated sheep blood under anaerobic conditions. P. gingivalis was maintained in ATCC Medium 2722 supplemented with TS broth or agar under anaerobic conditions. Before the experiments, bacterial cultures were inoculated in fresh media (dilution 1:100) and grown for 16 h at 37 °C.
(§2) The antimicrobial activities of the tested peptides were assessed through the determination of the minimum inhibitory concentration (MIC) standardized by the Clinical and Laboratory Standards Institute. Bacterial inocula were diluted in 10 mL of MHB […]. The concentration of the bacteria was adjusted to 0.5 McFarland standard, and the bacteria were dispensed in 96-well microtiter plates (final bacterial concentration: 1 × 10^4 CFU/well). Peptides were dissolved in sterile water (stock concentration: 2 mM) and added at final concentrations ranging from 0 to 50 µM. Plates were incubated at 37 °C for 16 h. At the end of incubation, bacterial growth was recorded using a microplate reader (Varioskan Lux Reader; Thermo Fisher Scientific, Milan, Italy) by quantifying the adsorption at 620 nm. Cultures were then opportunely diluted and seeded on agar plates. Bacterial cultures inoculated with the highest final concentration of the vehicle (sterile water) or chlorhexidine hydrochloride salt (CHX, concentration range: 0.05 to 500 μg/mL; Merck, Milan, Italy) were included as controls in each test. Experiments were performed in triplicate.

Assay [1] has as its system S. mutans bacteriocin production against F. nucleatum. Description: Bacteriocin overlay assay, S. mutans spotted on F. nucleatum. It counts as cell-based, Streptococcus mutans. The conditions noted are these: CSP1 20 μM, 16 h, 37 °C, anaerobic. The procedure: During the formation of complex biofilm such as dental plaque, the ability of S. mutans to compete with other commensal species determines the success of the cariogenesis process. S. mutans uses antibacterial peptides, namely, bacteriocins, to overcome and subvert the composition of dental microbiota. We investigated the production of bacteriocins using the overlay assay. Overnight cultures of S. mitis, S. oralis, S. sanguinis, P. aeruginosa, F. nucleatum, or P. gingivalis were diluted 1:100 in BHI or TS broth and incubated at 37 °C until they reached an OD620 of 0.3. Cultures were added with agar (BD Difco^TM Agar) at the final concentration of 1.5% w/v and transferred in plates. Overnight cultures of S. mutans were diluted 1:100 in BHI and added with peptides (20 μM) or the vehicle with or without CSP1. Culture media were supplemented with agar to reach the final concentration of 0.7% w/v. The solutions were spotted on the surface of agar plates prepared as described above. […]
(§3) Spots (10 for each experimental group) were acquired and analyzed using NIH Image J software (version 1.53t August 2022, https://imagej.nih.gov/ij/index.html; accessed on 7 September 2022). The appearance of a clear area on the plate (bacterial growth inhibition) was evaluated as indicative of bacteriocin activity. The diameters of the area were measured in a blinded fashion.

Assay [2] deals with S. mutans. Kind of assay: Bacterial growth kinetics. In kind it is cell-based, Streptococcus mutans. The procedure: Peptides were further evaluated for their potential effect in altering the growth kinetics in S. mutans. Overnight bacterial cultures were collected, centrifuged, and suspended in fresh BHI broth at 10^8 CFU/mL. Bacteria were dispensed in sterile 96-well microtiter plates at a final concentration of 1 × 10^6 CFU/100 µL and cultured with peptides or the vehicle at 37 °C for 36 h. Bacterial growth kinetics were monitored by measuring the optical density at 620 nm at different time points using Varioskan Lux Reader (Thermo Fisher Scientific).

The subject of another assay is F. nucleatum. Description: microbe, parasite or virus in culture. It counts as cell-based, Fusobacterium nucleatum. The conditions noted are these: peptides 0–50 μM, 16 h, 37 °C, anaerobic, A620 nm, three separate experiments.
Source text: as §1, §2

In assay [3] the test system is S. mutans. Kind of assay: microbe, parasite or virus in culture. It counts as cell-based, Streptococcus mutans. Particulars: peptides 0–50 μM, 16 h, 37 °C, microaerophilic, A620 nm, three separate experiments.
Source text: as §1, §2

Assay [4] deals with S. mutans bacteriocin production against S. sanguinis. Description: Bacteriocin overlay assay, S. mutans spotted on S. sanguinis. It counts as cell-based, Streptococcus mutans. Particulars: CSP1 20 μM alone vs vehicle, 16 h, 37 °C, microaerophilic. The procedure: During the formation of complex biofilm such as dental plaque, the ability of S. mutans to compete with other commensal species determines the success of the cariogenesis process. S. mutans uses antibacterial peptides, namely, bacteriocins, to overcome and subvert the composition of dental microbiota. We investigated the production of bacteriocins using the overlay assay. Overnight cultures of S. mitis, S. oralis, S. sanguinis, P. aeruginosa, F. nucleatum, or P. gingivalis were diluted 1:100 in BHI or TS broth and incubated at 37 °C until they reached an OD620 of 0.3. Cultures were added with agar (BD Difco^TM Agar) at the final concentration of 1.5% w/v and transferred in plates. Overnight cultures of S. mutans were diluted 1:100 in BHI and added with peptides (20 μM) or the vehicle with or without CSP1. Culture media were supplemented with agar to reach the final concentration of 0.7% w/v. The solutions were spotted on the surface of agar plates prepared as described above. The plates were kept on the benchtop for 30 min, allowing the agar containing S. mutans to solidify, and then incubated at 37 °C for 16 h under microaerophilic or anaerobic conditions, as required.
as §3

For a further assay, the system named is S. sanguinis. Kind of assay: microbe, parasite or virus in culture. It counts as cell-based, Streptococcus sanguinis. The conditions noted are these: peptides 0–50 μM, 16 h, 37 °C, microaerophilic, A620 nm, three separate experiments.
Source text: as §1, §2

A further assay relates to P. aeruginosa. Kind of assay: microbe, parasite or virus in culture. Particulars: peptides 0–50 μM, 16 h, 37 °C, aerobic, A620 nm, three separate experiments. In kind it is cell-based, Pseudomonas aeruginosa.
Source text: as §1, §2

Another assay relates to comE gene. Description: qRT-PCR, comE gene expression. In kind it is cell-based, Streptococcus mutans. Particulars: CSP1 20 μM, planktonic, 8 h, qPCR. The method, then: (§4) S. mutans was cultured in BHI supplemented with peptides or the vehicle. Cultures were centrifuged, and total RNA was isolated and purified from the bacterial pellets using the GRS Total RNA Kit—Bacteria (GK16.0100; GRISP Research Solution, Porto, Portugal), following the manufacturer’s instructions. Purified RNA was subjected to DNase I treatment to remove contaminating DNA. The RNA yield and purity were assessed by measuring the absorbance, and only samples with a ratio of 260/280 nm in the 1.8–2 range were used. cDNA was generated using the cDNA RT kit with an RNAse inhibitor (Applied Biosystems; Monza, Milan). Quantitative PCR (qRT-PCR) was performed using SYBR green mixture (iScript One Step RT-PCR kit; Bio-Rad, Segrate, Milan) to determine the transcript levels of genes using the oligonucleotides listed in Table 3. The gyrA gene served as the housekeeping gene.

For another assay, the system named is comC gene. Kind of assay: qRT-PCR, comC gene expression. In kind it is cell-based, Streptococcus mutans. The conditions noted are these: CSP1 20 μM, 8 h, qPCR. The method, then:
as §4
A general note: In qPCR the cycle at which signal appears reflects the starting amount.

In a further assay the test system is vicK gene. Description: qRT-PCR, vicK gene expression in biofilm. The conditions noted are these: CSP1 20 μM vs vehicle, 16 h, qPCR. In kind it is cell-based, Streptococcus mutans. The procedure: as §4

As for `CC[C@H](C)[C@H](NC(=O)[C@H](Cc1ccccc1)NC(=O)[C@H](CC(=O)O)NC(=O)[C@H](CCCNC(=N)N)NC(=O)[C@H](Cc1ccccc1)NC(=O)[C@H](Cc1ccccc1)NC(=O)[C@H](CCCCN)NC(=O)[C@H](CO)NC(=O)[C@H](CC(C)C)NC(=O)[C@H](CCCNC(=N)N)NC(=O)[C@H](CCSC)NC(=O)[C@@H](N)CCC(=O)O)C(=O)N[C@@H](CC(C)C)C(=O)N[C@@H](CCC(N)=O)C(=O)N[C@@H](CCCNC(=N)N)C(=O)N[C@@H](CCCCN)C(=O)N[C@@H](CCCCN)C(=O)O` [CSP1], the “Minimum inhibitory concentration (MIC), S. oralis” value in the assay on S. oralis was 25 µM (≈ 56.1 µg/mL). In assay [1], the “Growth inhibition of F. nucleatum by S. mutans stimulated with peptide” value is recorded as “inhibited the growth”. Also, in the assay with S. mutans [2] (20 µM peptide, BHI broth, 37 °C, monitored 36 h, A620 nm, three experiments), the “Effect on the growth (growth kinetics) of S. mutans” value is “no significant effects”. Moreover, the “Colony counting of S. mutans after incubation with the peptide” value in the assay with S. mutans [2] (20 µM, data not shown) is given as “not affected”. For the same compound, the “Minimum inhibitory concentration (MIC), F. nucleatum” value in the assay on F. nucleatum was greater than 50 µM. Moreover, in the assay with S. mutans [3], the “Minimum inhibitory concentration (MIC), S. mutans” value came to 30 µM (≈ 67.3 µg/mL). Further, the “Growth inhibition of co-cultured S. sanguinis by S. mutans stimulated with peptide (diameter of clear area)” value in assay [4] is recorded as “significantly inhibited the growth”. Moreover, the “Minimum inhibitory concentration (MIC), S. sanguinis” value with S. sanguinis was 21 µM (≈ 47.1 µg/mL). Further, the “Minimum inhibitory concentration (MIC), P. aeruginosa” value with P. aeruginosa was greater than 50 µM. Moreover, the “Expression of comE in S. mutans” value in the assay with comE gene was “increased the expression”. Further, the “Expression of comC in S. mutans” value in the assay on comC gene is “no effects”. Also, the “Expression of vicK in S. mutans biofilm” value in the assay with vicK gene is given as “significantly increased”.
